15 compounds from ChEMBL document CHEMBL1132745, “Diphenylsulfone muscarinic antagonists: piperidine derivatives with high M2 selectivity and improved potency” (Bioorg Med Chem Lett, 2000) can be followed below.

Broadly, the Ki is a dissociation constant, usually derived from enzyme kinetics or from competition with a known ligand. Higher therefore signals weaker binding.

Test [1] concerns the target T1, Muscarinic acetylcholine receptor M1 (Homo sapiens, UniProt P11229).
T1 sequence (P11229 whole entry): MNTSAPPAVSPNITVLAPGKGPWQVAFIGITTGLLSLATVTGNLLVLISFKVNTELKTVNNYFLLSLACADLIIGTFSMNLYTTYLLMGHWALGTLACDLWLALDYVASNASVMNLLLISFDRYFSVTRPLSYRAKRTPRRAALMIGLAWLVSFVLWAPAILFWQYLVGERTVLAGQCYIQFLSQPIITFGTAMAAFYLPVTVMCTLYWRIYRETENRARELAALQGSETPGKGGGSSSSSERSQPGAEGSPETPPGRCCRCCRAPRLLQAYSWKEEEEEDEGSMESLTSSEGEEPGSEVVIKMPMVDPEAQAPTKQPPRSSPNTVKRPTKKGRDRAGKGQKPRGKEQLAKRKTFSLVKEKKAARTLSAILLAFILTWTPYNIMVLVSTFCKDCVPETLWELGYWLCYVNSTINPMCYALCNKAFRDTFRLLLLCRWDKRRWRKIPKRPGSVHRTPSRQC
The test can be described thus: Binding affinity against Muscarinic acetylcholine receptor M1.

Test [2] concerns the target T2, Muscarinic acetylcholine receptor M5 (Homo sapiens, UniProt P08912).
T2 sequence (P08912 whole entry): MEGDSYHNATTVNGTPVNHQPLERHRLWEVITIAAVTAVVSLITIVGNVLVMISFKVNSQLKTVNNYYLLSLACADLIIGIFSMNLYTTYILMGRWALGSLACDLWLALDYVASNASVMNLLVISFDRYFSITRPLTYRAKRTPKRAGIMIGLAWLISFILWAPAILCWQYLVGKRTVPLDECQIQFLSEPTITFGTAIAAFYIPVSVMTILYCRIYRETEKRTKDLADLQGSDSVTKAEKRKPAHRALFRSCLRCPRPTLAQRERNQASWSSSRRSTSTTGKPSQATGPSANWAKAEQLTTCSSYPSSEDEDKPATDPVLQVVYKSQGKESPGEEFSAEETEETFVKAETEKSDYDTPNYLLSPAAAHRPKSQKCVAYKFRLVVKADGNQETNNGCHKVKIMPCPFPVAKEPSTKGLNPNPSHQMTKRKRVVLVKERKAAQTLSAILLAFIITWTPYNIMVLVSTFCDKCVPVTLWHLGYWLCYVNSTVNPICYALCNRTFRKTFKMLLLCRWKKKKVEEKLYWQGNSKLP
Nature of the test: The compound was tested for the binding affinity against Muscarinic acetylcholine receptor M5.

Test [3] has as its target T3, Muscarinic acetylcholine receptor M2 (Homo sapiens, UniProt P08172).
T3 sequence (P08172 whole entry): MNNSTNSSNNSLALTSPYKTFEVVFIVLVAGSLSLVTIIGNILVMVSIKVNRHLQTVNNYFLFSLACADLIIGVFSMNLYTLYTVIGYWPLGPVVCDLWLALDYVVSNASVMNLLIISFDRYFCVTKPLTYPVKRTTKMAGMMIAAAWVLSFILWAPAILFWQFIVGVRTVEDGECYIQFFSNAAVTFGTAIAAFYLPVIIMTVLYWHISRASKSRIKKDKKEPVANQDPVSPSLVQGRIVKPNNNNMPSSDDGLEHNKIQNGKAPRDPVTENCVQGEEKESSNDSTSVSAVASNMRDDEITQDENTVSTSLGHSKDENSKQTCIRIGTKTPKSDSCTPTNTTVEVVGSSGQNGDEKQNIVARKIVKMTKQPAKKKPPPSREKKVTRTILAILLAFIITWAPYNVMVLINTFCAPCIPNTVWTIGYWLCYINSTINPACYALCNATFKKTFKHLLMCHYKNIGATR
The test can be described thus: Binding affinity against Muscarinic acetylcholine receptor M2.

Test [4] deals with Muscarinic acetylcholine receptor M3 (Homo sapiens, UniProt P20309). The test can be described thus: Binding affinity against Muscarinic acetylcholine receptor M3.
Test [5] addresses T4, Muscarinic acetylcholine receptor M4 (Homo sapiens, UniProt P08173).
T4 sequence (P08173 whole entry): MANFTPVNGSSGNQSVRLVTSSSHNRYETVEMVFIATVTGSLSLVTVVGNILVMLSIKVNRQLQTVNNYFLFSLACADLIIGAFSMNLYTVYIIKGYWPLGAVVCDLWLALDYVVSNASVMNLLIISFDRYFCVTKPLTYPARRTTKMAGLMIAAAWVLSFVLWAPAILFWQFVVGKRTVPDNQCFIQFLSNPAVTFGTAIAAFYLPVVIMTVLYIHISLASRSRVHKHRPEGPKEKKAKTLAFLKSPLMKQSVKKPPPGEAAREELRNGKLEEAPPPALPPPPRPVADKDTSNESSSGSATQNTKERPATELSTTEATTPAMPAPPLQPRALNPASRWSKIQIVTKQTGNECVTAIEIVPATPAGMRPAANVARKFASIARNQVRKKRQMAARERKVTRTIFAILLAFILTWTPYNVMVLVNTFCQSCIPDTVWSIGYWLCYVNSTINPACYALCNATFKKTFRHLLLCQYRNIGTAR
The test can be described thus: Binding affinity against Muscarinic acetylcholine receptor M4.

Muscarinic acetylcholine receptor M3, sequence (P20309 whole entry): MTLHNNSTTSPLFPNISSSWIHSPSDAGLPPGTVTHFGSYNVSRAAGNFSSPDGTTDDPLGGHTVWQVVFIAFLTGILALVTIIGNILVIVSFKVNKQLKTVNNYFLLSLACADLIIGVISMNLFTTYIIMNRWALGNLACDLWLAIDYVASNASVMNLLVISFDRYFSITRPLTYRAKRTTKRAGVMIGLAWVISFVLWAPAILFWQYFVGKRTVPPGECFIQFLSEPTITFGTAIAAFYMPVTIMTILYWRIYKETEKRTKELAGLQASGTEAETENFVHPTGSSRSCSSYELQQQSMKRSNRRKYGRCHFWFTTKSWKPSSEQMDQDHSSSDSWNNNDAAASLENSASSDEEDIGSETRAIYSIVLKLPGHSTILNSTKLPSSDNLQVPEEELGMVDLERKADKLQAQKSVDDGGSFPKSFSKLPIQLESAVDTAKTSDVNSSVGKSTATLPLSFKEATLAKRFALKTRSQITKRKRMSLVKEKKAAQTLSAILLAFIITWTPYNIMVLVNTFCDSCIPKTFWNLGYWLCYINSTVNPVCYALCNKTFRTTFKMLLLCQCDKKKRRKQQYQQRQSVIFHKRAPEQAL

As for `COc1ccc([S@@+]([O-])c2ccc(C(C#N)N3CCN(C4CCCCC4)CC3)cc2)cc1` (some centres not stated), the Ki in test [1] was 112 nM; in test [2], 309 nM; in test [3], 2.78 nM; in test [4], 29.4 nM; in test [5], 14.8 nM.

In the case of `COc1ccc([S@@+]([O-])c2ccc(C(C#N)C3CCN(C4CCCCC4)CC3)cc2)cc1` (some centres not stated), the inhibition constant Ki in test [1] was 113 nM; in test [3], 7.67 nM; in test [4], 37 nM; in test [5], 12.7 nM.

With `COc1ccc([S@+]([O-])c2ccc(C(C#N)N3CCN(C4CCCCC4)CC3)cc2)cc1` (some centres not stated), the Ki was 253 nM in test [1], 17.3 nM in test [3] and 18.4 nM in test [5].

Turning to `COc1ccc([S@@+]([O-])c2ccc(C(=O)C3CCN(C4CCCCC4)CC3)cc2)cc1`, the inhibitory constant (Ki) in test [1] was 104 nM; in test [3] it was 3.58 nM; in test [4], 27.8 nM; in test [5], 17.9 nM.

With `C=C(c1ccc([S@@+]([O-])c2ccc(OC)cc2)cc1)C1CCN(C2CCCCC2)CC1`, the Ki in test [1] came to 0.68 nM; in test [3], 0.03 nM; in test [4] it was 0.13 nM; in test [5], 0.09 nM.

On to `COc1ccc([S@+]([O-])c2ccc(C(C#N)C3CCN(C4CCCCC4)CC3)cc2)cc1` (some centres not stated), for which the Ki in test [1] amounted to 136 nM; in test [3], 7.14 nM; in test [4] it was 58.8 nM; in test [5], 45.1 nM.

For `COc1ccc([S@+]([O-])c2ccc(C(=O)C3CCN(C4CCCCC4)CC3)cc2)cc1`, the inhibitory constant (Ki) in test [1] is 69.5 nM; in test [3], 10.8 nM; in test [4] it was 20.1 nM; in test [5] it was 15.2 nM.

Consider `C=C(c1ccc([S@+]([O-])c2ccc(OC)cc2)cc1)C1CCN(C2CCCCC2)CC1`, for which the Ki in test [1] is 2.14 nM; in test [3] it was 0.057 nM; in test [4] it was 0.38 nM; in test [5] it was 0.32 nM.

With `COc1ccc([S+]([O-])c2ccc(C(C)N3CCN(C4CCCCC4)CC3)cc2)cc1` (configuration not stated), the Ki amounted to 6 nM in test [1], 1 nM in test [3], 0.97 nM in test [4] and 2.2 nM in test [5].

Regarding `COc1ccc(S(=O)(=O)c2ccc(C(C#N)C3CCN(C4CCCCC4)CC3)cc2)cc1` (configuration not stated), the inhibitory constant (Ki) amounted to 16.4 nM in test [1] and 1.3 nM in test [3].

As to `C=C(c1ccc(Sc2ccc(OC)cc2)cc1)C1CCN(C2CCCCC2)CC1`, the Ki in test [1] amounted to 4.4 nM; in test [3], 0.37 nM.

Turning to `COc1ccc([S+]([O-])c2ccc(C(C)C3CCN(C4CCCCC4)CC3)cc2)cc1` (configuration not stated), the inhibition constant Ki is 0.53 nM in test [1]; 1.66 nM in test [2]; 0.14 nM in test [3]; 0.16 nM in test [4]; 0.07 nM in test [5].

With `C=C(c1ccc(S(=O)(=O)c2ccc(OC)cc2)cc1)C1CCN(C2CCCCC2)CC1`, the inhibitory constant (Ki) was determined as 2.8 nM in test [1], 0.17 nM in test [3], 0.48 nM in test [4] and 0.33 nM in test [5].

On to `COc1ccc(S(=O)(=O)c2ccc(C(=O)C3CCN(C4CCCCC4)CC3)cc2)cc1`, for which the inhibition constant Ki in test [1] came out at 31.1 nM; in test [3], 3.07 nM; in test [4], 13.8 nM; in test [5], 9.05 nM.

As to `COc1ccc(S(=O)(=O)c2ccc(C(C#N)N3CCN(C4CCCCC4)CC3)cc2)cc1` (configuration not stated), the inhibitory constant (Ki) came to 71.8 nM in test [1], 7.3 nM in test [3], 6.8 nM in test [4] and 18.6 nM in test [5].
